Results: article PMC9532755, “Impact of lactisole on the time-intensity profile of selected sweeteners in dependence of the binding site” (Food Chemistry: X, 2022)
Peptide text beside a SMILES is read from it.

Assays:
[1] = tested on: perceived sweet intensity (panelists); assay: Sensory time-intensity (TI) measurement of sweetness by a trained panel; assay type: in vivo, human; settings: for Emax of max. intensity (sensory): scale 0-100, top < 100; for sweetener concentration up to which lactisole effectively inhibited the sweetness: time-intensity curves; for EC50: Homo sapiens, asymmetric five parameter curve fit, read-out: EC50 of max. intensity (sensory); for lingering: time point at which < 50 % of maximum sweetness was reached / onset (time of first maximum intensity): at sweet intensity saturation level: 50 mM cyclamate, 0.5 mM NHDC, 5.0 mM acesulfame K, 5.0 mM aspartame, without lactisole; for mode of inhibition by lactisole (shift of dose-response curve), sensory experiments: combination with 0.46 and 0.92 mM lactisole
Description: All panelists gave their written informed consent for participating in the panel and had to complete a sensory training. […] On a last training day, the evaluation on unstructured scales and the time-dependent evaluation on the computer were trained. All panelists reported to be in good general health condition, and not being under medication or pregnant. At least one hour before every training or tasting, panelists were instructed not to smoke and not to consume intense tasting food or beverage (e.g. coffee, chili, garlic, chewing gum) and to avoid in general strong hunger or fullness as well as strong odors or perfume on test days.
Every test solution was assessed randomly at two different test days with at least 8 panelists participating per replicate. The panelists were free to choose to participate at the different test days. A maximum of five test compounds were assessed in one session. All samples were coded with three-digit random code and presented to the panelists in randomized order. On each test day, panelists were presented five sweet solutions with 0, 25, 50, 100 and 200 g/L sucrose as a scale training for the ratings from “not at all” to “very intensive” sweetness. […] The three minutes of evaluation were chosen to capture as much of the lingering as possible without wearing out the panelists during the evaluation. A total of 350 measuring time points was recorded within the pre-set time frame, especially to see differences in the first seconds of evaluation, which are important for the onset. The panelists were asked to take the sample (20 mL) into their mouth, while starting the timer and simultaneously the evaluation of sweet intensity over the time, and to spit out the sample after ten seconds while continuing the evaluation of the sweetness intensity until the end of the three minutes.
For comparison of the time-dependent properties, the following descriptors were used: the maximum intensity at the first 30 sec of evaluation as “max. intensity”, the time-point of the first maximum intensity as “onset” in sec, […], and the area under the curve from the time-intensity plots as “AUC” as a marker for the overall intensity and duration.
All sensory experiments were conducted at the Christian Doppler Laboratory for Taste Research at the Institute for Physiological Chemistry, University of Vienna, Austria, at room temperature (21 – 23 °C). • Calcium mobilization assay
The statistical analysis and graphical representation were performed with GraphPad Prism 9.0 for sensory results and with SigmaPlot 14.0 for cell experiments. To evaluate the sensory dose–response effects of ascending sweetener concentration w/o lactisole, an asymmetrical five-parameter curve (Richard́s five-parameter dose–response curve) was fitted. The data are presented as means ± SEM from at least 16 single evaluations. Statistical significance between the different test compounds and concentration-dependent effects was assessed by two-way ANOVAs with Tukey post hoc test using Graph Pad Prism. The normal distribution of the data sets was checked by evaluation of the kurtosis (between −7 to + 7) and the skewness (between −3 to + 3). Equal variance was tested using Levenés test. In case the assumptions of a normal distribution and equal variance were not met, the non-parametric ANOVA on ranks (Kruskal-Wallis Test) with Dunn's post-hoc test without the calculation of interaction was applied. A Pearson product moment correlation was conducted to investigate relationships between sensory results and cell responses of the tested sweeteners.

sweetness = tested on: sweetness; design: method as in Schiffman et al., 1995; settings: compared to 5 % sucrose; ref Schiffman et al., 1995; cited from earlier work

EC50 ([1]; 0 mM lactisole) | Structure (SMILES) | Hillslope of max. intensity dose-response (sensory) ([1]; 0 mM lactisole) | Emax of max. intensity (sensory) ([1]; 0 mM lactisole) | sweetener concentration up to which lactisole effectively inhibited the sweetness ([1]; 0.46 mM lactisole) | sweetener concentration up to which lactisole effectively inhibited the sweetness ([1]; 0.92 mM lactisole) | lingering: time point at which < 50 % of maximum sweetness was reached [1] | onset (time of first maximum intensity) [1] | mode of inhibition by lactisole (shift of dose-response curve), sensory experiments [1] | Hillslope of max. intensity dose-response (sensory) ([1]; with 0.46 mM lactisole) | Emax of max. intensity (sensory) ([1]; with 0.46 mM lactisole) | Hillslope of max. intensity dose-response (sensory) ([1]; with 0.92 mM lactisole) | Emax of max. intensity (sensory) ([1]; with 0.92 mM lactisole) | sensory sweetness factor (sweetness)
56 µM | COc1ccc(CCC(=O)c2c(O)cc(O[C@@H]3O[C@H](CO)[C@@H](O)[C@H](O)[C@H]3O[C@@H]3O[C@@H](C)[C@H](O)[C@@H](O)[C@H]3O)cc2O)cc1O [NHDC, neohesperidin dihydrochalcone] | 0.94 | 97.73 | up to 0.2 mM | up to 0.5 mM | 100.7 s | 5.1 s | competitive inhibition | 0.89 | 100.00 | 0.82 | 100.00 | approximately 900
920 µM | CC1=CC(=O)NS(=O)(=O)O1 [acesulfame K] | 1.43 | unstable | up to 1 mM | up to 1 mM | 44.7 s | 4.6 s | – | 2.75 | 71.83 | 1.45 | 73.60 | –
1090 µM | COC(=O)[C@H](Cc1ccccc1)NC(=O)[C@@H](N)CC(=O)O [aspartame] (H-Asp-Phe-OMe) | 2.56 | 97.05 | ≤ 1.0 mM | up to 2.0 mM | 71.4 s | 5.7 s | – | 1.28 | 99.22 | 1.32 | 100.00 | –
8720 µM | O=S(=O)(O)NC1CCCCC1 [cyclamate] | 2.60 | 96.11 | up to 5.0 mM | ≤ 10.0 mM | 60.1 s | 5.1 s | competitive inhibition | 2.18 | 92.37 | 2.10 | unstable | around 30
